≈ marks a conversion by molar mass, not a printed value. Read-outs that look alike come from different tables or passages of the source.
Assays:
Format in all cases: cell-based, Influenza A
WSN/33 H274Y (H1N1) = system: WSN/33 H274Y (H1N1)
[1] = system: Victoria/3/75-Os-R (H3N2); assay: microbe, parasite or virus in culture
[2] = system: Mississippi/3/2001 H275Y (H1N1)
[3] = system: Hawaii/31/2007 H275Y (H1N1)
[4] = system: Pennsylvania/30/2009 H275Y, I223R (H1N1)
[5] = system: Hong Kong/2369/2009 H275Y (H1N1)

Compound | EC50 (WSN/33 H274Y (H1N1)) | SI (WSN/33 H274Y (H1N1)) | EC50 [1] | SI [1] | EC50 [2] | SI [2] | EC50 [3] | SI [3] | EC50 [4] | SI [4] | SI [5] | EC50 ([1]; Influenza A virus, H3N2, MDCK) | EC50 [5]
Oseltamivir acid [Oseltamivir (OSE)] | 28 µg/mL | >1.8 | >50 µg/mL | 0 | >50 µg/mL | 0 | >21 µg/mL | <2.4 | >50 µg/mL | 0 | <6.4 |  | 
NC(=O)c1ncn([C@@H]2O[C@H](CO)[C@@H](O)[C@H]2O)n1 [Ribavirin, ribavirin] | 3.7 µg/mL (≈ 15.2 µM) |  |  |  | 18 µg/mL (≈ 73.7 µM) |  | 7.2 µg/mL (≈ 29.5 µM) |  | 5.2 µg/mL (≈ 21.3 µM) |  |  | 5.4 µg/mL (≈ 22.1 µM) | 28 µg/mL (≈ 115 µM)

Source: patent US11230593B2, “Compositions and methods for treating and preventing influenza” (VISTERRA, INC., priority 2019, dated 2022)
